Results published in ChEMBL document CHEMBL3046051, “A novel approach to the synthesis of 1,2,3-triazoles and their SAR studies” (2010).

How the values were obtained:
Type in all cases: functional
Aspergillus flavus [1] = test: Antifungal activity against Aspergillus flavus 871 by paper disk method relative to voriconazole
Wickerhamiella azyma [2] = test: Antifungal activity against Candida azyma 1452 by paper disk method relative to voriconazole
Aspergillus niger [3] = test: Antifungal activity against Aspergillus niger 281 by paper disk method relative to voriconazole
Candida albicans [4] = test: Antifungal activity against Candida albicans 227 by paper disk method relative to voriconazole
Aspergillus flavus [5] = test: Antifungal activity against Aspergillus flavus 871 by paper disk method
Wickerhamiella azyma [6] = test: Antifungal activity against Candida azyma 1452 by paper disk method
Aspergillus niger [7] = test: Antifungal activity against Aspergillus niger 281 by paper disk method
Candida albicans [8] = test: Antifungal activity against Candida albicans 227 by paper disk method

SMILES	inhibition (INH) (Aspergillus flavus [1]) [%]	inhibition (INH) (Wickerhamiella azyma [2]) [%]	inhibition (INH) (Aspergillus niger [3]) [%]	inhibition (INH) (Candida albicans [4]) [%]	inhibition zone (IZ) (Aspergillus flavus [5]) [mm]	inhibition zone (IZ) (Wickerhamiella azyma [6]) [mm]	inhibition zone (IZ) (Aspergillus niger [7]) [mm]	inhibition zone (IZ) (Candida albicans [8]) [mm]
C=CN1C(C)=C(C(C)=O)NN1c1ccccc1	-13.33	-26.67	-33.33	-31.25	–	–	–	–
C=CN1C(C)=C(C(C)=O)NN1c1cccc(Cl)c1	-73.33	-86.67	-100	-93.75	–	–	–	–
C=CN1C(C)=C(C(C)=O)NN1c1cccc(O)c1	40	26.67	11.11	18.75	–	–	–	–
C=CN1C(C)=C(C(C)=O)NN1c1ccc(O)cc1	46.67	33.33	16.67	25	–	–	–	–
C=CN1C(C)=C(C(C)=O)NN1c1ccc(C(=O)O)cc1	33.33	6.67	-11.11	6.25	–	–	–	–
C=CN1C(C)=C(C(C)=O)NN1c1cccc(C)c1	-46.67	-60	-72.22	-62.5	–	–	–	–
C=CN1C(C)=C(C(C)=O)NN1c1cccc([N+](=O)[O-])c1	13.33	0	-33.33	-6.25	–	–	–	–
C=CN1C(C)=C(C(C)=O)NN1c1ccc([N+](=O)[O-])cc1	20	6.67	-27.78	0	–	–	–	–
C=CN1C(C)=C(C(C)=O)NN1c1ccc(C)cc1	-40	-53.33	-66.67	-56.25	–	–	–	–
C=CN1C(C)=C(C(C)=O)NN1c1ccc(Cl)cc1	-66.67	-80	-94.44	-87.5	–	–	–	–
C=CN1C(C)=C(C(C)=O)NN1c1cccc(OC)c1	-26.67	-40	-50	-43.75	–	–	–	–
C=CN1C(C)=C(C(C)=O)NN1c1ccc(OC)cc1	-20	-33.33	-44.44	-37.5	–	–	–	–
C[C@@H](c1ncncc1F)[C@](O)(Cn1cncn1)c1ccc(F)cc1F [VORICONAZOLE]	–	–	–	–	15	15	18	16
